Target: T1, immunocaptured catalase (Homo sapiens, UniProt P04040)
T1 construct: Endogenous catalase activity in cell lysates; endogenous in cells; host or cells: human colorectal cancer cell lines; BE2-M17 human neuroblastoma cells (with or without rotenone)
T1 sequence (P04040 2-527 limits assumed): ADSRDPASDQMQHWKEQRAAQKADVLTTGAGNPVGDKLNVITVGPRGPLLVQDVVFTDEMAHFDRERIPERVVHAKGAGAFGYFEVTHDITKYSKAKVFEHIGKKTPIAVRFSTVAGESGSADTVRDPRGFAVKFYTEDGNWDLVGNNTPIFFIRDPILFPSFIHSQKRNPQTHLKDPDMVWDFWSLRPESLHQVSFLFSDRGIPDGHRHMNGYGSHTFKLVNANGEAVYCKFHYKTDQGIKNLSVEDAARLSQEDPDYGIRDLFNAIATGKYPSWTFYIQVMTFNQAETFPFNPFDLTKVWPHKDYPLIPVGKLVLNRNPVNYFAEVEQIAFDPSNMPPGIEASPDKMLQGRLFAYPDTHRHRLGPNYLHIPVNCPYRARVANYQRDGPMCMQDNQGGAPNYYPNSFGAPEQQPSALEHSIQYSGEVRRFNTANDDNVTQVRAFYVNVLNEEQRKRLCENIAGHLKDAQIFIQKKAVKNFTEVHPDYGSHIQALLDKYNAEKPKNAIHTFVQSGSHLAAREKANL
Assay: Relative specific activity of immunocaptured catalase (SpCAT) after incubation with NaSH
Format: biochemical
Settings: for effect of NaSH on SpCAT: NaSH 0–50 μM
Protocol: The relative specific activity (activity and quantity) of catalase in the cell lysates was determined using the kit ab118184 from Abcam (Cambridge, MA). The measurements were performed in duplicate as per the manufacturer's protocol. Briefly, catalase in cell lysates (0.1–0.2 mg cell lysates per assay) was immunocaptured within the wells of the microplate. An assay buffer, which contains H2O2 that reacts with a substrate to generate a luminescent product, was added to each well. The presence of catalase in the reaction mixture reduces the production of light and the light produced in each well is thus inversely proportional to the amount of catalase activity. Then, the quantity of catalase was measured by adding to each well an anti-catalase primary detector antibody. After 1 h incubation at RT, the unbound detector antibody was washed away and an HRP-conjugated labelled secondary antibody specific for the primary detector antibody was added to the wells. After 1 h incubation, the wells were again washed and a 3,3′,5,5′-Tetramethylbenzidine (TMB) substrate solution was added to the wells. A blue colour (absorbance at 600 nm) developed in proportion to the amount of catalase bound. Luminescence and absorbance measurements were performed on an EnSpire Multilabel Reader 2300 (PerkinElmer). To check the effect of NaSH on the relative specific activity of catalase, the immunocaptured catalase was incubated with various concentrations of NaSH (0–50 μM) for 5 min at RT before carefully washing twice each well. The protocol above was then followed to determine activity measurement and catalase quantification.

With `[Na+].[SH-]` [NaSH] the “response of SpCAT towards NaSH” value (BE2-M17 cells versus rotenone-treated BE2-M17 cells) was “similar”, the “effect of NaSH on SpCAT” value (HCT-15 cancer cells) was “inhibited” and the “effect of NaSH on SpCAT” value (HCT-116 cancer cells) was “almost unaffected”. For the same compound, the “effect of NaSH on SpCAT” value (HT-29 Glc−/+ control cell line) was “almost unaffected” and the “effect of NaSH on SpCAT” value (MDST8 cancer cells) was “activated”.

Source: publication PMC5116089, “Sulfheme formation during homocysteine S-oxygenation by catalase in cancers and neurodegenerative diseases” (Nature Communications, 2016)
